Reference: paper PMC3216401 (Antiviral research, 2011)
Where two headings read alike, the source gives them in different places.

What was measured:
[1] = system: Influenza A/Vietnam/1203/2004 (H5N1)
[2] = system: Influenza A/Vietnam/1203/2004 (H5N1); remark: listed apart in the source
[3] = system: A/Thailand/2(Kan-1)/16/2004 (H5N1)
[4] = system: A/Thailand/2(Kan-1)/16/2004 (H5N1); remark: listed apart in the source
[5] = system: A/Hong Kong/213/2003 (H5N1)
[6] = system: A/Hong Kong/213/2003 (H5N1); remark: listed apart in the source
[7] = system: Influenza A/Vietnam/1203/2004 (H5N1); assay: microbe, parasite or virus in culture; conditions: H5N1, MDCK, read-out: IC50, Visual Assay
[8] = system: Influenza A/Vietnam/1203/2004 (H5N1); assay: microbe, parasite or virus in culture; conditions: H5N1, MDCK, read-out: IC50, Neutral Red Uptake Assay
[9] = system: A/Thailand/2(Kan-1)/16/2004 (H5N1); assay: microbe, parasite or virus in culture; conditions: Influenza A virus, H5N1, MDCK, read-out: IC50, Visual Assay
[10] = system: A/Thailand/2(Kan-1)/16/2004 (H5N1); assay: microbe, parasite or virus in culture; conditions: Influenza A virus, H5N1, MDCK, read-out: IC50, Neutral Red Uptake Assay
[11] = system: A/Hong Kong/213/2003 (H5N1); assay: microbe, parasite or virus in culture; conditions: Influenza A virus, H5N1, MDCK, read-out: IC50, Visual Assay
[12] = system: A/Hong Kong/213/2003 (H5N1); assay: microbe, parasite or virus in culture; conditions: Influenza A virus, H5N1, MDCK, read-out: IC50, Neutral Red Uptake Assay
[13] = system: Influenza A/Vietnam/1203/2004 (H5N1); assay: microbe, parasite or virus in culture; assay type: cell-based; conditions: H5N1, MDCK, read-out: IC90, VYR Assay
[14] = system: A/Thailand/2(Kan-1)/16/2004 (H5N1); assay: microbe, parasite or virus in culture; assay type: cell-based; conditions: Influenza A virus, H5N1, MDCK, read-out: IC90, VYR Assay
[15] = system: A/Hong Kong/213/2003 (H5N1); assay: microbe, parasite or virus in culture; assay type: cell-based; conditions: Influenza A virus, H5N1, MDCK, read-out: IC90, VYR Assay
[16] = system: influenza A/Vietnam/1203/2004 H5N1 virus; conditions: in vivo
[17] = mouse, in vivo
in vitro [18] = conditions: dog, CC50, Visual Assay
in vitro [19] = conditions: dog, CC50, Neutral Red Uptake Assay
influenza viruses = assay: microbe, parasite or virus in culture; assay type: cell-based, influenza A and B viruses; conditions: Influenza A virus, read-out: IC50 values, range
influenza virus (H1N1) = conditions: read-out: EC50, influenza virus replication in MDCK cells; cited from earlier work
influenza virus = conditions: mouse, in vivo, sc; cited from earlier work
MDCK cells [20] = system: MDCK cells
MDCK cells [21] = system: MDCK cells; remark: listed apart in the source

## Nc1ncnc2c1ncn2[C@@H]1O[C@H](CO)[C@@H](O)[C@H]1F [2’-deoxy-2’-fluoroadenosine]
[1]
  SI (CC50/IC50), Visual Assay: 0
[2]
  SI (CC50/IC50), Neutral Red Uptake Assay: 0
[3]
  SI (CC50/IC50), Visual Assay: 0
[4]
  SI (CC50/IC50), Neutral Red Uptake Assay: 0
[5]
  SI (CC50/IC50), Visual Assay: 0
[6]
  SI (CC50/IC50), Neutral Red Uptake Assay: 0
[7]
  IC50: > 100 µM
[8]
  IC50: > 100 µM
[9]
  IC50: > 100 µM
[10]
  IC50: > 100 µM
[11]
  IC50: > 100 µM
[12]
  IC50: > 100 µM

## Nc1ccn([C@@H]2O[C@H](CO)[C@@H](O)[C@H]2I)c(=O)n1 [2’-iodo-2’-deoxycytidine]
[1]
  SI (CC50/IC50), Visual Assay: 0
[2]
  SI (CC50/IC50), Neutral Red Uptake Assay: 0
[3]
  SI (CC50/IC50), Visual Assay: 0
[4]
  SI (CC50/IC50), Neutral Red Uptake Assay: 0
[5]
  SI (CC50/IC50), Visual Assay: 0
[6]
  SI (CC50/IC50), Neutral Red Uptake Assay: 0
[7]
  IC50: > 100 µM
[8]
  IC50: > 100 µM
[9]
  IC50: > 100 µM
[10]
  IC50: > 100 µM
[11]
  IC50: > 100 µM
[12]
  IC50: > 100 µM

## Nc1nc(=O)n([C@H]2C[C@H](O)[C@@H](CO)O2)cc1F [2'-deoxy-5-fluorocytidine]
[13]
  IC90: 0.13 µM
[14]
  IC90: > 100 µM
[15]
  IC90: > 100 µM
[3]
  SI (CC50/IC50), Visual Assay: 0 ± 0
[4]
  SI (CC50/IC50), Neutral Red Uptake Assay: 0 ± 0
[5]
  SI (CC50/IC50), Visual Assay: 0 ± 0
[6]
  SI (CC50/IC50), Neutral Red Uptake Assay: 0 ± 0
[16]
  Inhibition in the H5N1 mouse model: not inhibitory
  Toxicity in the H5N1 mouse model: very toxic
[16]; mouse
  Promotion of survival of infected mice: not very effective
  Protection from death, i.p.: not shielded from death
[17]
  Tolerability: well- tolerated
  Toxicity in mice: considerable toxicity in the form of severe weight loss
In vitro [18]
  CC50: > 100 µM
In vitro [19]
  CC50: > 100 µM
[7]
  IC50: 0.19 ± 0.03 µM
[8]
  IC50: 0.09 ± 0.1 µM
[9]
  IC50: > 100 µM
[10]
  IC50: > 100 µM
[11]
  IC50: > 100 µM
[12]
  IC50: > 100 µM

## Nc1nc2c(ncn2[C@@H]2O[C@H](CO)[C@@H](O)[C@H]2F)c(=O)[nH]1 [2’-deoxy-2’-fluoroguanosine]
Influenza viruses
  IC50: 8.5 to 21 µM
[1]
  SI (CC50/IC50), Visual Assay: >4.8
[2]
  SI (CC50/IC50), Neutral Red Uptake Assay: >12
[3]
  SI (CC50/IC50), Visual Assay: 0
[5]
  SI (CC50/IC50), Visual Assay: >12
Influenza virus (H1N1)
  EC50: 18.2 µM
Influenza virus
  Mice protected from death: 50%
[7]
  IC50: 21 µM
[8]
  IC50: 8.6 µM
[9]
  IC50: > 100 µM
[11]
  IC50: 8.5 µM

## O=c1ccn([C@@H]2O[C@H](CO)[C@@H](O)[C@H]2F)c(=O)[nH]1 [2’-deoxy-2’-fluorouridine]
[1]
  SI (CC50/IC50), Visual Assay: 0
[2]
  SI (CC50/IC50), Neutral Red Uptake Assay: 0
[3]
  SI (CC50/IC50), Visual Assay: 0
[7]
  IC50: > 100 µM
[8]
  IC50: > 100 µM
[9]
  IC50: > 100 µM

## [N-]=[N+]=N[C@@H]1[C@H](O)[C@@H](COP(=O)(O)OP(=O)(O)OP(=O)(O)O)O[C@H]1n1ccc(N)nc1=O [2’-azido-2’-deoxycytidine, 2'-azido-2'-deoxyctidine-5'-triphosphate]
[2]
  SI (CC50/IC50), Neutral Red Uptake Assay: > 2030
[3]
  SI (CC50/IC50), Visual Assay: 0 ± 0
[4]
  SI (CC50/IC50), Neutral Red Uptake Assay: 0 ± 0
[5]
  SI (CC50/IC50), Visual Assay: 0 ± 0
[6]
  SI (CC50/IC50), Neutral Red Uptake Assay: 0 ± 0
MDCK cells [20]
  CC50, Visual Assay: >100 ± 0 µM
MDCK cells [21]
  CC50, Neutral Red Uptake Assay: >100 ± 0 µM
